Results as given in patent US20110082130A1 (LIGAND PHARMACEUTICALS, INC., priority 2006, published 2011).

Molecular target: T1, chimeric human H3 receptor (Homo sapiens, UniProt Q9Y5N1)
T1 construct: made in house; host or cells: Sf9 insect cells (baculovirus); P2 membrane preparation
Assay: Chimeric human H3 receptor GTP binding assay (agonist-stimulated GTP-gamma35S binding, Example 7)
Format: biochemical
How it was run: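 Sf9 membranes co-expressing chimeric human H3 receptor and heterotrimeric G-protein, 35 μg/tube, in pH 7.4 Tris buffer with 10 μM GDP. Test compounds (10^−10–10^−6 M) competed against 1 μM histamine, […] GTP-gamma35S, 60 min at room temperature. Filter-bound radioactivity counted; IC50 converted to Ki by Cheng-Prusoff. Agonism/inverse agonism tested without histamine (EC50).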

[1] = Table II, "*" = Ki in assay of Example 7 less than 1 micromolar
[2] = Table II "Ki", symbol *, assay of Example 7
[3] = assay of Example 7, "*" in Ki of Table II

T1 sequence (Q9Y5N1 with tags, fused parts or gaps): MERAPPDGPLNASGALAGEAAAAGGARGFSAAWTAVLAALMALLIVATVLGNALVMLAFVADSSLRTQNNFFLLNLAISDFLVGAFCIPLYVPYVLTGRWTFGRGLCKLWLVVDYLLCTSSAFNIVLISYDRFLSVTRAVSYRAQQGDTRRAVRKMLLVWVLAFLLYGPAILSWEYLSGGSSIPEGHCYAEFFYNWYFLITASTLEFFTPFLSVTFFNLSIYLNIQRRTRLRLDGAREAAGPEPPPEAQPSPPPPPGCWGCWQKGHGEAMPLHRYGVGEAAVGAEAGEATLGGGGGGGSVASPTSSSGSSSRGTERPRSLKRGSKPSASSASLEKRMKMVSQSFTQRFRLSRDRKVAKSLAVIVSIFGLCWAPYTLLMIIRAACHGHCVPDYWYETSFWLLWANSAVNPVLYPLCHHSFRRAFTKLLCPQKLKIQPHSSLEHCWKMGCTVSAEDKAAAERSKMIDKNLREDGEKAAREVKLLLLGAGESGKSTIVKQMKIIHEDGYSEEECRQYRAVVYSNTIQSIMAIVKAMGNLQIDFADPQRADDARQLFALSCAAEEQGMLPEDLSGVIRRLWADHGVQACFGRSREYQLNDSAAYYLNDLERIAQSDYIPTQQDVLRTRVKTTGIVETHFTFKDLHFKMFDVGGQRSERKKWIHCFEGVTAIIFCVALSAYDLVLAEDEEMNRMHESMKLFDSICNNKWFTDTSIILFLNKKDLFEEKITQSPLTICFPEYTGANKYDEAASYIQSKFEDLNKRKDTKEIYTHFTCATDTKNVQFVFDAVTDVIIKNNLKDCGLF

Row | SMILES | Ki [1] [µM] | Ki [3] [µM] | also measured
1 | O=C(CN1CCc2nc(N3CCC(O)C3)ccc2C1)N1CCN(C2CCC2)CC1 (stereo not shown) [Compound 226, 1-{6-[2-(4-cyclobutylpiperazin-1-yl)-2-oxoethyl]-5,6,7,8-tetrahydro-1,6-naphthyridin-2-yl}pyrrolidin-3-ol] | < 1 | – | –
2 | COCCC1CCN(c2ccc3c(n2)CCN(CC(=O)N2CCN(C4CCC4)CC2)C3)CC1 [Compound 672, 6-[2-(4-cyclobutylpiperazin-1-yl)-2-oxoethyl]-2-[4-(2-methoxyethyl)piperidin-1-yl]-5,6,7,8-tetrahydro-1,6-naphthyridine] | – | – | Ki [2]: < 1 µM
3 | Cn1c(-c2ccc3c(c2)CCN(CC(=O)N2CCN(C4CCC4)CC2)C3)cccc1=O [Compound 278, 6-{2-[2-(4-cyclobutylpiperazin-1-yl)-2-oxoethyl]-1,2,3,4-tetrahydroisoquinolin-6-yl}-1-methylpyridin-2(1H)-one] | < 1 | – | –
4 | CCCn1cc(-c2ccc3c(c2)CCN(CC(=O)N2CCN(C4CCC4)CC2)C3)ccc1=O [Compound 281, 5-{2-[2-(4-cyclobutylpiperazin-1-yl)-2-oxoethyl]-1,2,3,4-tetrahydroisoquinolin-6-yl}-1-propylpyridin-2(1H)-one] | < 1 | – | –
5 | O=C(CN1CCc2nc(NC3CCCC3)ccc2C1)N1CCN(C2CCC2)CC1 [Compound 656, 6-[2-(4-cyclobutylpiperazin-1-yl)-2-oxoethyl]-N-cyclopentyl-5,6,7,8-tetrahydro-1,6-naphthyridin-2-amine] | – | – | Ki [2]: < 1 µM
6 | CC(C)Oc1cccc(-c2nc3c(s2)CN(CC(=O)N2CCN(C4CCC4)CC2)CC3)c1 [Compound 325, 5-[2-(4-cyclobutylpiperazin-1-yl)-2-oxoethyl]-2-(3-isopropoxyphenyl)-4,5,6,7-tetrahydro[1,3]thiazolo [5,4-c]pyridine] | – | < 1 | –
7 | COc1ccccc1-c1nc2c(s1)CN(CC(=O)N1CCN(C3CCC3)CC1)CC2 [Compound 336, 5-[2-(4-cyclobutylpiperazin-1-yl)-2-oxoethyl]-2-(2-methoxyphenyl)-4,5,6,7-tetrahydro[1,3]thiazolo [5,4-c]pyridine] | – | < 1 | –
8 | COc1ccc2cc(-c3ccc4c(c3)CCN(CC(=O)N3CCN(C5CCC5)CC3)C4)ccc2c1 [Compound 509, 2-[2-(4-cyclobutylpiperazin-1-yl)-2-oxoethyl]-6-(6-methoxy-2-naphthyl)-1,2,3,4-tetrahydroisoquinoline] | – | – | Ki [2]: < 1 µM
9 | O=C(CN1CCc2cc(Oc3ccc(C(F)(F)F)cn3)ccc2C1)N1CCN(C2CCC2)CC1 [Compound 198, 2-[2-(4-cyclobutylpiperazin-1-yl)-2-oxoethyl]-6-{[5-(trifluoromethyl)pyridin-2-yl]oxy}-1,2,3,4-tetrahydroisoquinoline] | < 1 | – | –
10 | COc1ccc(-c2nc3c(s2)CN(CC(=O)N2CCN(C4CCC4)CC2)CC3)cc1C [Compound 333, 5-[2-(4-cyclobutylpiperazin-1-yl)-2-oxoethyl]-2-(4-methoxy-3-methylphenyl)-4,5,6,7-tetrahydro[1,3]thiazolo [5,4-c]pyridine] | – | < 1 | –
11 | CCOc1cccc(-c2nc3c(s2)CN(CC(=O)N2CCN(C4CCC4)CC2)CC3)c1 [Compound 317, 5-[2-(4-cyclobutylpiperazin-1-yl)-2-oxoethyl]-2-(3-ethoxyphenyl)-4,5,6,7-tetrahydro[1,3]thiazolo [5,4-c]pyridine] | – | < 1 | –
12 | O=C(CN1CCc2nc(N3CCC(F)(F)CC3)ccc2C1)N1CCN(C2CCC2)CC1 [Compound 183, 6-[2-(4-cyclobutylpiperazin-1-yl)-2-oxoethyl]-2-(4,4-difluoropiperidin-1-yl)-5,6,7,8-tetrahydro-1,6-naphthyridine] | < 1 | – | –
13 | O=C(CN1CCc2nc(-c3ccc(OC(F)(F)F)cc3)sc2C1)N1CCN(C2CCC2)CC1 [Compound 316, 5-[2-(4-cyclobutylpiperazin-1-yl)-2-oxoethyl]-2-[4-(trifluoromethoxy)phenyl]-4,5,6,7-tetrahydro[1,3]thiazolo [5,4-c]pyridine] | – | < 1 | –
14 | CC(C)[C@@H]1CN(C(=O)CN2CCc3cc(-c4cncnc4)ccc3C2)CCN1C1CCC1 [Compound 189, 2-{2-[(3R)-4-cyclobutyl-3-isopropylpiperazin-1-yl]-2-oxoethyl}-6-pyrimidin-5-yl-1,2,3,4-tetrahydroisoquinoline] | < 1 | – | –
15 | O=C(CN1CCc2nn(C3CCOCC3)cc2C1)N1CCN(C2CCC2)CC1 [Compound 685] | – | – | Ki (Table II, assay of Example 7): < 1 µM
16 | CC1CCC[C@H]2CN(C(=O)CN3CCc4nc(-c5cncnc5)ccc4C3)CCN12 (stereo in doubt) [Compound 177, 6-[2-(6-methyloctahydro-2H-pyrido[1,2-a]pyrazin-2-yl)-2-oxoethyl]-2-pyrimidin-5-yl-5,6,7,8-tetrahydro-1,6-naphthyridine] | < 1 | – | –
17 | COc1ccc(-c2ccc3c(c2)CCN(CC(=O)N2CCN(C4CCCC4)CC2)C3)cc1OC [Compound 525, 2-[2-(4-cyclopentylpiperazin-1-yl)-2-oxoethyl]-6-(3.4-dimethoxyphenyl)-1,2,3,4-tetrahydroisoquinoline] | – | – | Ki [2]: < 1 µM
18 | O=C(CN1CCc2nn(-c3ccc(F)cc3)cc2C1)N1CCN(C2CCC2)CC1 [Compound 236, 5-[2-(4-cyclobutylpiperazin-1-yl)-2-oxoethyl]-2-(4-fluorophenyl)-4,5,6,7-tetrahydro-2H-pyrazolo[4,3-c]pyridine] | < 1 | – | –
19 | Cc1ccc(-n2ncc3c2CCN(CC(=O)N2CCN(C4CCC4)CC2)C3)nn1 [Compound 288, 5-[2-(4-cyclobutylpiperazin-1-yl)-2-oxoethyl]-1-(6-methylpyridazin-3-yl)-4,5,6,7-tetrahydro-1H-pyrazolo[4,3-c]pyridine] | – | < 1 | –
20 | CCCc1ccc(-c2nc3c(s2)CN(CC(=O)N2CCN(C4CCC4)CC2)CC3)cc1 [Compound 312, 5-[2-(4-cyclobutylpiperazin-1-yl)-2-oxoethyl]-2-(4-propylphenyl)-4,5,6,7-tetrahydro[1,3]thiazolo [5,4-c]pyridine] | – | < 1 | –

Second part, led by results:

Row | Ki [1] [µM] | Ki [3] [µM] | SMILES | also measured
21 | – | < 1 | O=C(CN1CCc2nc(-c3ccc(F)c(F)c3)sc2C1)N1CCN(C2CCC2)CC1 [Compound 349, 5-[2-(4-cyclobutylpiperazin-1-yl)-2-oxoethyl]-2-(3,4-difluorophenyl)-4,5,6,7-tetrahydro[1,3]thiazolo [5,4-c]pyridine] | –
22 | – | < 1 | O=C(CN1CCc2cc(-c3ccc4c(c3)OCO4)ccc2C1)N1CCN(C2CCC2)CC1 [Compound 377, 6-(1,3-benzodioxol-5-yl)-2-[2-(4-cyclobutylpiperazin-1-yl)-2-oxoethyl]-1,2,3,4-tetrahydroisoquinoline] | –
23 | – | < 1 | O=C(CN1CCc2cc(-c3ccc4c(c3)OCCO4)ccc2C1)N1CCN(C2CCC2)CC1 [Compound 380, 2-[2-(4-cyclobutylpiperazin-1-yl)-2-oxoethyl]-6-(2,3-dihydro-1,4-benzodioxin-6-yl)-1,2,3,4-tetrahydroisoquinoline] | –
24 | – | < 1 | CCC(C)N1CCN(C(=O)CN2CCc3cc(-c4ccc(OC)nc4)ccc3C2)CC1 (stereo not shown) [Compound 383, 2-[2-(4-sec-butylpiperazin-1-yl)-2-oxoethyl]-6-(6-methoxypyridin-3-yl)-1,2,3,4-tetrahydroisoquinoline] | –
25 | – | < 1 | Cc1ccc(F)c(-c2nc3c(s2)CN(CC(=O)N2CCN(C4CCC4)CC2)CC3)c1Cl [Compound 365, 2-(2-chloro-6-fluoro-3-methylphenyl)-5-[2-(4-cyclobutylpiperazin-1-yl)-2-oxoethyl]-4,5,6,7-tetrahydro[1,3]thiazolo [5,4-c]pyridine] | –
